Measurements as given in patent US20150329883A1 (Samsung Electronics Co., Ltd., priority 2014, published 2015).
In brackets after ≈: the same amount, converted by molar mass. Several values for one entry are separate records, joined by “and”; a condition that tells them apart may be missing. Equal entries are not always repeated. Where two headings read alike, the source gives them in different places.

Assays:
[1] = test system: Corynebacterium S003 strain (Δldh, Δpta-ackA, ΔpoxB, and ΔactA); assay: microbe, parasite or virus in culture; conditions: for IC50: Corynebacterium
Description: In particular, for a seed culture, the strain was streaked on an active plate including agar 5 g/L of yeast extract, 10 g/L of beef extract, 10 g/L of polypeptone, 5 g/L of NaCl, and 20 g/L of agar, and then cultured at a temperature of 30° C. for about 48 hours. A single colony obtained therefrom was inoculated in 5 ml of a BHIS medium (including 37 g/L of brain-heart infusion agar, 91 g/L of D-sorbitol, pH 7.0) and grown overnight at a temperature of 30° C.
1 ml of the obtained culture solution was inoculated in a 25 ml of BHIS in a 250 ml flask and grown until an OD600 value was 5.0. The culture solution was centrifuged, a supernatant thereof was removed to collect the microorganism only, and the microorganism was washed with CGXII minimal medium. The CGXII minimal medium includes 20 g/L of (NH4)2SO4, 5 g/L of urea, 1 g/L of KH2PO4, 1 g/L of K2HPO4, 0.25 g/L of MgSO4.7H2O, 10 mg/L of CaCl2, 10 mg/L of FeSO4.7H2O, 0.1 mg/L of MnSO4.H2O, 1 mg/L of ZnSO4.7H2O, 0.2 mg/L of CuSO4.5H2O, […], 0.2 mg/L of biotin, 42 g/L of 3-morpholinopropanesulfonic acid (MOPS), and 4% (w/v) of glucose.

[2] = test system: S003/pGEX4-NCgl0275 strain; assay: microbe, parasite or virus in culture
From the text: A strain that overexpresses the fourteen SRGs was obtained by cloning the SRGs to Xhol/BamHI restriction site of a pGEX-4 vector to be expressed under an influence of a Ptuf promoter as described in “2. Preparation of pGEX_Ptuf::Ncgl1853, Ncgl1855, Ncgl2988, Ncgl2425, Ncgl2404, Ncgl0368, Ncgl2877, Ncgl0275, Ncgl2359, Ncgl1525, Ncgl0976, Ncgl2673, Ncgl2297, and Ncgl1524 vector” under “Material and Method”, and then introducing each of the vectors thus obtained to a Corynebacterium glutamicum S003 strain.

[3] = test system: Corynebacterium glutamicum S003 strain; conditions: 0.0625 M succinic acid, anaerobic, 5 hours, vs control without succinic acid
Description: After isolating total RNA from the cultured cells by using RNeasy midi kit (Qiagen), a transciptome was analyzed by using a Corynebacterium glutamicum ATCC 13032, 3×20K chip microarray (MYcroarray.com) according the protocol of the same manufacturer. 6134 unique probes are immobilized on the chip, where each of the probes is a three-times repeat.

[4] = 0.25 M succinic acid, anaerobic, S003 strain

Structure (SMILES): O=C(O)CCC(=O)O [succinic acid]
- glucose uptake rate compared with control group ([1]; 0.0625 M succinic acid, after 15 hours): the same
- glucose uptake ([1]; 0.0625 M succinic acid, within the first 5 hours): suppressed
- decrease of glucose uptake rate [1, 4]: about 66.4%
- succinic acid production [1, 4]: almost not produced
- IC50 ([1]; read-out: IC50 value of the glucose uptake rate): 13 mg/mL (≈ 110 mM)
- IC50 ([1]; read-out: IC50 value of the succinic acid production): 100 mM and 11800 µg/mL
- IC50 ([2]; Corynebacterium glutamicum, read-out: IC50 value of the glucose uptake rate): 70.8 mg/mL (≈ 600 mM)
- increase of IC50 compared to the control group ([2]; S003/pGEX4-NCgl0275 strain vs control): about 5.45 fold
- Fold of reduction of expression, Ncgl0275 (whiB4) [3]: 1.56 fold
- Fold of reduction of expression, Ncgl0368 [3]: 1.60 fold
- Fold of reduction of expression, Ncgl1524 (tpi/tpiA) [3]: 1.700 fold
- Fold of reduction of expression, Ncgl1853 (nrdR) [3]: 4.24 fold
- Fold of reduction of expression, Ncgl1855 (lexA) [3]: 2.44 fold
- Fold of reduction of expression, Ncgl2297 (mdh) [3]: 1.700 fold
- Fold of reduction of expression, Ncgl2359 [3]: 1.52 fold
- Fold of reduction of expression, Ncgl2404 [3]: 1.73 fold
- Fold of reduction of expression, Ncgl2425 [3]: 1.74 fold
- Fold of reduction of expression, Ncgl2673 (fda) [3]: 1.820 fold
- Fold of reduction of expression, Ncgl2877 [3]: 1.57 fold
- Fold of reduction of expression, Ncgl2988 (parB) [3]: 1.91 fold
- reduction of expression of nine expected transcription regulator genes (NCgl1853, NCgl1855, NCgl0368, NCgl0275, NCgl2359, NCgl2404, NCgl2425, NCgl2988, NCgl2877) [3]: ≥ 1.5 fold
